Where two headings read alike, the source gives them in different places.
Experiments:
colorectal cancer = test system: colorectal cancer; parameters: method as in PMID 25824412, PMID 30687400; settings: previously reported studies; cited from earlier work
[1] = test system: Vero, a non-cancerous cell line; parameters: method as in PMID 25824412, PMID 30687400; settings: read-out: IC50 in Vero cells; cited from earlier work
[2] = test system: cardiac markers (NKX2.5, GATA4, Troponin I, Troponin T, MHCα) in WJCM; assay: qRT-PCR gene expression of cardiac-specific markers in WJCM
Experimental: Differentiation of WJMSCs was done using a proprietary combination of DNMT and HDAC inhibitors in KO-DMEM/F-12 containing 10% FBS for 48 h. Induction media was replaced with culture media i.e. KO-DMEM/F-12 with 1X GlutaMAX and, 10% FBS after 48 h for 7 days[23].
WJMSC-derived cardiomyocytes (WJCM) and H9C2 were treated with NMJ and QMJ analogues for 24 h. […] To illustrate the toxicity specific to cardiac cells and not a general cytotoxicity, WJMSCs were treated with positive cardiotoxic drugs.
Total ribonucleic acid (RNA) was isolated using RNAiso Plus (TaKaRa, Shiga, Japan) followed by cDNA conversion using PrimeScript™ 1st strand cDNA synthesis kit (TaKaRa, Shiga, Japan). Quantitative reverse transcriptase-polymerase chain reaction (qRT-PCR) was performed by using TB Green™ Premix Ex Taq™ II (Tli RNase H Plus; TaKaRa, Shiga, Japan) for cardiac markers in a QuantStudio™ 5 real-time PCR Systems (Applied Biosystems, USA). All the primers were purchased from Sigma Aldrich, Bangalore, India (Table 1). The relative gene expression was calculated using 2^-∆∆CT and GAPDH, a housekeeping gene was used as endogenous control[52],[53].

[3] = test system: cardiomyocytes (WJCM and H9C2 cells); assay: Cardiotoxicity across parameters as summarised in the discussion (WJCM and H9C2 cells); type: cell-based, human and rat; settings: for overall cardiotoxicity across the parameters analyzed: analogues at Vero IC50 concentration, 24 h
Text: We investigated the effects of 3-hydroxyflavone (QMJ-2, QMJ-5, and QMJ-6) and cinnamyl sulfonamide-hydroxamate (NMJ-1, NMJ-2, NMJ-3) in WJCM and H9C2 cells using the concentrations reported for non-cancerous Vero cells. The prerequisite for any synthesized drug molecules is that they should be nontoxic to cardiac cells.

H9C2 cells [4] = assay: LDH release assay in H9C2 cells; type: cell-based, rat; settings: 24 h; analogues at Vero IC50 concentration
Experimental: (§1) The experiment was performed as per the manufacturer’s protocol. Absorbance was taken at 490 nm and 680 nm (background signal) using multimode plate reader. LDH activity was calculated by subtracting absorbance taken at 680 nm from 490 nm.

[5] = test system: WJMSC-derived cardiomyocytes (WJCM); assay: LDH release assay in WJCM; type: cell-based, human; settings: 24 h; analogues at Vero IC50 concentration
Experimental: as §1

H9C2 cells [6] = assay: MTT cell viability assay in H9C2 cells; type: cell-based, rat; settings: 24 h; analogues at Vero IC50 concentration; Dox 1 µM
Experimental: (§2) Similarly, the toxicity of these compounds in terms of the viability of cells was estimated by using the MTT assay and cell counting kit-8 (CCK-8) assay. For MTT assay, after 24 h of treatments, MTT (5 mg/ml of PBS; HiMedia, India) was added, and cells were incubated for 2 h at 37 °C. The formazan crystals that were formed after the incubation were dissolved using dimethyl sulfoxide (DMSO). For the CCK-8 assay, 10 μL of CCK-8 solution (Boster Biological Technology, Pleasanton, CA, USA) was added to each well and incubated for 2 h at 37 °C. The absorbance for MTT and CCK-8 assay was measured at 570 nm and 450 nm respectively using the EnSight™ Multimode plate reader (Perkin Elmer, MA, USA)[49],[50].

WJMSCs [7] = assay: MTT cell viability assay in undifferentiated WJMSCs; type: cell-based, human; settings: 24 h; Dox 1 µM, 5FU 1 µM, Cis 5 µM; undifferentiated cells
Experimental: as §2, with “°C.” for “°C. The absorbance for MTT and CCK-8 assay was measured at 570 nm and 450 nm respectively using the EnSight™ Multimode plate reader (Perkin Elmer, MA, USA)[49],[50].”

WJMSCs [8] = assay: LDH release assay in undifferentiated WJMSCs; type: cell-based, human; settings: 24 h; Dox 1 µM, 5FU 1 µM, Cis 5 µM; undifferentiated cells
Experimental: Mesenchymal stem cells from Wharton's jelly (WJMSCs) were isolated from the Wharton's jelly of the human umbilical cord via enzymatic digestion as described previously with slight modifications. Experiments were performed after obtaining clearance from Institutional Ethical Committee ([…] Hospital, Bangalore, India. Informed consent was obtained from the donor and all the experiments were performed in accordance with relevant guidelines and regulations. Rat cardiomyoblast cell line, H9C2 was obtained from National Centre for Cell Science (NCCS), Pune, India. WJMSCs were maintained in KnockoutTM Dulbecco's Modified Eagle Medium/Nutrient Mixture F-12 (KO-DMEM/F-12; Gibco, MA, USA) with 10% Fetal bovine serum (FBS, Gibco, MA, USA), 1X GlutaMAX (Gibco, MA, USA), and 1X Antibiotic Antimycotic Solution (Gibco, MA, USA). H9C2 cells were cultured in Dulbecco's Modified Eagle Medium-High Glucose (DMEM-HG; Gibco, MA, USA) supplemented with 10% FBS and 1X Antibiotic-Antimycotic solution at 37 °C in 5% CO2 incubator. […] The experiment was performed as per the manufacturer's protocol. Absorbance was taken at 490 nm and 680 nm (background signal) using multimode plate reader. LDH activity was calculated by subtracting absorbance taken at 680 nm from 490 nm.

WJMSCs [9] = assay: CCK-8 assay in undifferentiated WJMSCs; type: cell-based, human; settings: 24 h; Dox 1 µM, 5FU 1 µM, Cis 5 µM; undifferentiated cells
Experimental: Mesenchymal stem cells from Wharton's jelly (WJMSCs) were isolated from the Wharton's jelly of the human umbilical cord via enzymatic digestion as described previously with slight modifications. Experiments were performed after obtaining clearance from Institutional Ethical Committee ([…] Hospital, Bangalore, India. Informed consent was obtained from the donor and all the experiments were performed in accordance with relevant guidelines and regulations. Rat cardiomyoblast cell line, H9C2 was obtained from National Centre for Cell Science (NCCS), Pune, India. WJMSCs were maintained in KnockoutTM Dulbecco's Modified Eagle Medium/Nutrient Mixture F-12 (KO-DMEM/F-12; Gibco, MA, USA) with 10% Fetal bovine serum (FBS, Gibco, MA, USA), 1X GlutaMAX (Gibco, MA, USA), and 1X Antibiotic Antimycotic Solution (Gibco, MA, USA). H9C2 cells were cultured in Dulbecco's Modified Eagle Medium-High Glucose (DMEM-HG; Gibco, MA, USA) supplemented with 10% FBS and 1X Antibiotic-Antimycotic solution at 37 °C in 5% CO2 incubator. […] Similarly, the toxicity of these compounds in terms of the viability of cells was estimated by using the MTT assay and cell counting kit-8 (CCK-8) assay. For MTT assay, after 24 h of treatments, MTT (5 mg/ml of PBS; HiMedia, India) was added, and cells were incubated for 2 h at 37 °C. The formazan crystals that were formed after the incubation were dissolved using dimethyl sulfoxide (DMSO). For the CCK-8 assay, 10 μL of CCK-8 solution (Boster Biological Technology, Pleasanton, CA, USA) was added to each well and incubated for 2 h at 37 °C. The absorbance for MTT and CCK-8 assay was measured at 570 nm and 450 nm respectively using the EnSightTM Multimode plate reader (Perkin Elmer, MA, USA)[49],[50].

[10] = test system: WJMSC-derived cardiomyocytes (WJCM); assay: MTT and CCK-8 cell viability assays in WJCM; type: cell-based, human; settings: 24 h; analogues at Vero IC50 concentration; Dox 1 µM
Experimental: as §2

[11] = qRT-PCR, analogues at Vero IC50 concentration
[12] = qRT-PCR, analogues at Vero IC50 concentration, Dox, 5FU, Cis as positive cardiotoxic drugs
[13] = discussion summary, cell model not specified

Structure (SMILES)	concentration found effective against cancer (colorectal cancer) [µM]	IC50 [1] [µM]	GATA4 gene expression in WJCM [2, 11]	MHCα gene expression in WJCM [2, 11]	Troponin I gene expression in WJCM [2, 11]	cardiac marker gene expression in WJCM (all markers together) [2, 12]	overall cardiotoxicity across the parameters analyzed [3]	ROS level in treated cardiomyocytes [3, 13]	active mitochondria status in treated cardiomyocytes [3, 13]	cytotoxic effect against cardiomyocytes by MTT, CCK-8 and LDH assay [3, 13]	intracellular calcium level in treated cardiomyocytes [3, 13]	LDH release in H9C2 cells (H9C2 cells [4])	LDH release in WJCM [5]	decrease in viability of H9C2 cells (MTT) (H9C2 cells [6])	MTT cell viability in WJMSCs (WJMSCs [7])	LDH release in WJMSCs (WJMSCs [8])	CCK-8 in WJMSCs (WJMSCs [9])	cardiac marker gene expression in WJCM (all markers together) [2]	further results
Cc1ccc(-c2oc3cc(C)ccc3c(=O)c2O)cc1 [QMJ-5, 3-Hydroxy-7-methyl-2-(4-methylphenyl)-4H-1-benzopyran-4-one]	27.4	55.6	decreased the expression	decreased the expression	decreased the expression	drastic reduction	cardiotoxic	increased ROS levels	loss of mitochondria	induced toxicity	increased the level	increase in LDH	increase in LDH	10–20%					
COc1cccc2c1C(=O)c1c(O)c3c(c(O)c1C2=O)C[C@@](O)(C(=O)CO)C[C@@H]3O[C@H]1C[C@H](N)[C@H](O)[C@H](C)O1 [Dox, doxorubicin, reference compound]						reduced all the cardiac markers expression drastically		increased ROS level	affected cardiomyocyte mitochondrial activity		alternation in calcium			~25%	no significant difference	no significant difference	no significant difference		NO production / NO levels [3, 13]: reduced NO production; toxicity / cell viability in WJCM (MTT, CCK-8), result in words [10]: reduced cell viability drastically
Cc1ccc(-c2oc3ccccc3c(=O)c2O)cc1 [QMJ-2, 3-hydroxy-2-(4-methylphenyl)-4H-1-benzopyran-4-one]	68	140	decreased the expression	decreased the expression	decreased the expression		cardiotoxic	increased ROS levels	loss of mitochondria	induced toxicity	increased the level	increase in LDH	increase in LDH	10–20%				drastic reduction	Troponin T gene expression in WJCM, result in words [2, 11]: milder increase
N.N.[Cl][Pt][Cl] [Cis, cisplatin]																no significant difference	no significant difference	reduced all the cardiac markers expression drastically	
O=C(/C=C/c1ccc(S(=O)(=O)NCc2cccs2)cc1)NO [NMJ-1]	5.07	9.7	decreased the expression	decreased the expression	decreased the expression	drastic reduction	cardiotoxic	increased ROS levels	loss of mitochondria	induced toxicity	increased the level	increase in LDH	increase in LDH	10–20%					
O=c1[nH]cc(F)c(=O)[nH]1 [5FU, 5-fluorouracil]						reduced all the cardiac markers expression drastically									no significant difference	no significant difference	no significant difference		
